Laboratory results from article PMC8333062, “Chemical tools for epichaperome-mediated interactome dysfunctions of the central nervous system” (Nature Communications, 2021).

How the values were obtained:
[1] = PET biodistribution in human patients; format: in vivo; conditions: mean n=3
Description: To evaluate the brain permeability of PU-HZ151 into the human brain, we produced the [^124I]-labeled derivative and performed serial PET imaging studies of human patients (n = 3; NCT03371420), and derived time-activity (i.e. standard uptake values (SUV) versus time post-administration) curves for the brain and various other tissues (Fig. 2b). PET data obtained for [^124I]-labeled PU-H71 (NCT01269593 and ref. [39]) were used for comparison. […] The AUC values recorded for [^124I]-PU-HZ151 in the human brain post-single injection are at par with what was measured in the human muscle and lung, supportive of uptake of PU-HZ151 into the human brain (Fig. 2b). Magnetic resonance imaging (MRI), by offering structural and soft tissue resolution, confirmed the presence of PU-HZ151 in the brain tissue (Fig. 2d). […] The secondary outcome of the trial was to measure adverse events following administration of the probe. Safety of [^124I]-PU-HZ151 in human subjects was assessed by evaluation of the incidence, nature, and severity of adverse events and serious adverse events (Supplementary Note 2).
[^124I]-PU-HZ151 and [^124I]-PU-H71 were synthesized in-house by the institutional cyclotron core facility at high specific activity. Analyses of the epichaperome by positron emission tomography (PET-CT) were performed as previously reported. In brief, research PET-CT was performed using an integrated PET-CT scanner (Discovery DSTE, GE Healthcare). CT scans for attenuation correction and anatomic coregistration were performed before tracer injection. Patients received 5 mCi of [^124I]-PU-HZ151 or [^124I]-PU-H71 by peripheral vein over 2 min. PET data were reconstructed using a standard ordered subset expected maximization iterative algorithm. Emission data were corrected for scatter, attenuation, and decay. PET scans were performed 0.5, 3, and 24 h after tracer administration. Numbers in the scale bar indicate upper and lower standardized uptake value (SUV) thresholds that define pixel intensity on PET images. SUV is a pixel value, derived from PET measurements of in vivo radioactivity, quantified as the fraction of the radioactive dose injected found in a cubic centimeter of measured tissue multiplied (ie, normalized) by patient body weight (grams). Maximum Intensity Projection (MIP) 3D images were constructed from the voxels with maximum intensity that fell in the way of parallel rays traced from the viewpoint to the plane of projection. At each pixel the highest data value encountered along the corresponding viewing ray was determined. MRI scans were obtained as part of routine clinical care using hardware and standard data acquisition and processing methods. MRI was obtained using a 1.5T magnet (Signa HDxt, GE Healthcare, Milwaukee, WI). […] Gadopentetate dimeglumine (Magnevist, HealthCare Pharmaceuticals Inc.) was injected though a peripheral angiocatheter at a standard dose (0.2 mL kg^−1 body weight, 40 mL, 2 cc s^−1). For precise localization of tracer uptake to specific neuroanatomical structures, PET brain images were fused to MRI brain images using the Integrated Registration application of the AW Suite software package (GE Healthcare, Milwaukee, Wisconsin, USA).

CYP2A6 = target: T1, CYP2A6 (Homo sapiens, UniProt P11509); test: Cytochrome P450 profiling, tranylcypromine; format: in vitro ADME; conditions: for % PU-HZ151 remaining: Tranylcypromine
T1 construct: PU-HZ151 (1 µM) was incubated with human liver microsomes (0.5 mg protein mL^−1); tissue Life Technologies HMMCPL; host or cells: human liver microsomes
T1 sequence (P11509 1-494): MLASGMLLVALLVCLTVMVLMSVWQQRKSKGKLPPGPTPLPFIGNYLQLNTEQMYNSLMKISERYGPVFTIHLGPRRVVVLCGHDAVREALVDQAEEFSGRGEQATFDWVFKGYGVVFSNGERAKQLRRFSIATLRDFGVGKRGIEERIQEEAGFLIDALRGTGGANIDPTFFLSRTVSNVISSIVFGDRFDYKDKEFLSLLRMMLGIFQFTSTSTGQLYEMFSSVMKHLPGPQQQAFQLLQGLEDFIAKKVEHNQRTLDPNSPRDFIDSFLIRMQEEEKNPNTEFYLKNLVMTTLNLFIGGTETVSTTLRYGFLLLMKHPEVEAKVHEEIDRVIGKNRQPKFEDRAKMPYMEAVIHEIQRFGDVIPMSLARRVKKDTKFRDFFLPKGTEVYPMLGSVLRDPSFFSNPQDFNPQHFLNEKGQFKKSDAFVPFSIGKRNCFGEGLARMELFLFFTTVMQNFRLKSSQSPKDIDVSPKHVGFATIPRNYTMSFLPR
Experimental: To identify cytochrome P450 enzymes responsible for PU-HZ151’s metabolism in human liver microsomes the following procedure was followed. Phosphate buffer (100 mM, pH 7.4) was prepared monthly and stored at 4 °C. Frozen stock solutions of human liver microsomes (Life Technologies; Cat# HMMCPL) were used once after thawing and were not refrozen. NADPH stock solution (50 mM) in distilled water was prepared fresh daily. […] The stock solutions of these P450 inhibitors were prepared in DMSO. […] The concentration of the chemical inhibitors used in the assay were furafylline (10 μM), tranylcypromine (2 μM), ketoconazole (1 μM), troleandomycin (20 μM), orphenadrine (50 μM), montelukast (3 μM), sulfaphenazole (10 μM), benzylnirvanol (1 μM), quinidine (1 μM), and 1-aminobenzotriazole (1 mM) for all the P450 enzymes. Timing of the reactions was started following the addition of NADPH/magnesium chloride mix and PU-HZ151. Time-dependent chemical inhibitors (furafylline, troleandomycin, orphenadrine, and 1-aminobenzotriazole) were preincubated with human microsomes in the presence of NADPH and magnesium chloride for 15 min before the addition of PU-HZ151 and timing of reactions was started after addition of PU-HZ151. […] Following brief vortexing and centrifugation, a 200 µL aliquot of the supernatant was transferred to a tube, and 10 µL of haloperidol (1 µg mL^−1) as internal standard was added. Following brief vortexing and centrifugation, 50 µL of supernatant was added to a 96-well plate for subsequent LC-MS/MS analysis. PU-HZ151 was similarly tested as above in the absence of CYP inhibitors for comparative purposes. All samples were assayed in duplicate. […] This was similarly performed for incubations of PU-HZ151 performed in the absence of CYP inhibitor.

97 kinases [2] = target: T2, 97 kinases (Homo sapiens, UniProt P00533, L858R); test: scanEDGE off-target screen; format: binding; conditions: read-out: %Ctrl EGFR(L858R)
T2 construct: purchased Ambit Biosciences (scanEDGE / KINOMEscan) scanEDGE 97 kinase panel; host or cells: T7 phage in E. coli BL21-derived host; remaining kinases in HEK-293 cells

97 kinases [3] = target: T3, 97 kinases (Homo sapiens, UniProt Q9Y463); test: scanEDGE off-target screen; format: binding; conditions: read-out: %Ctrl DYRK1B
T3 construct: purchased Ambit Biosciences (scanEDGE / KINOMEscan) scanEDGE 97 kinase panel; host or cells: T7 phage in E. coli BL21-derived host; remaining kinases in HEK-293 cells

MDA-MB-468 cells = test: Cell viability, ATP levels 72 h; format: cell-based, human; conditions: control MDA-MB-468 of Fig. 6f; mean

T2 sequence (P00533 25-1210 L858R): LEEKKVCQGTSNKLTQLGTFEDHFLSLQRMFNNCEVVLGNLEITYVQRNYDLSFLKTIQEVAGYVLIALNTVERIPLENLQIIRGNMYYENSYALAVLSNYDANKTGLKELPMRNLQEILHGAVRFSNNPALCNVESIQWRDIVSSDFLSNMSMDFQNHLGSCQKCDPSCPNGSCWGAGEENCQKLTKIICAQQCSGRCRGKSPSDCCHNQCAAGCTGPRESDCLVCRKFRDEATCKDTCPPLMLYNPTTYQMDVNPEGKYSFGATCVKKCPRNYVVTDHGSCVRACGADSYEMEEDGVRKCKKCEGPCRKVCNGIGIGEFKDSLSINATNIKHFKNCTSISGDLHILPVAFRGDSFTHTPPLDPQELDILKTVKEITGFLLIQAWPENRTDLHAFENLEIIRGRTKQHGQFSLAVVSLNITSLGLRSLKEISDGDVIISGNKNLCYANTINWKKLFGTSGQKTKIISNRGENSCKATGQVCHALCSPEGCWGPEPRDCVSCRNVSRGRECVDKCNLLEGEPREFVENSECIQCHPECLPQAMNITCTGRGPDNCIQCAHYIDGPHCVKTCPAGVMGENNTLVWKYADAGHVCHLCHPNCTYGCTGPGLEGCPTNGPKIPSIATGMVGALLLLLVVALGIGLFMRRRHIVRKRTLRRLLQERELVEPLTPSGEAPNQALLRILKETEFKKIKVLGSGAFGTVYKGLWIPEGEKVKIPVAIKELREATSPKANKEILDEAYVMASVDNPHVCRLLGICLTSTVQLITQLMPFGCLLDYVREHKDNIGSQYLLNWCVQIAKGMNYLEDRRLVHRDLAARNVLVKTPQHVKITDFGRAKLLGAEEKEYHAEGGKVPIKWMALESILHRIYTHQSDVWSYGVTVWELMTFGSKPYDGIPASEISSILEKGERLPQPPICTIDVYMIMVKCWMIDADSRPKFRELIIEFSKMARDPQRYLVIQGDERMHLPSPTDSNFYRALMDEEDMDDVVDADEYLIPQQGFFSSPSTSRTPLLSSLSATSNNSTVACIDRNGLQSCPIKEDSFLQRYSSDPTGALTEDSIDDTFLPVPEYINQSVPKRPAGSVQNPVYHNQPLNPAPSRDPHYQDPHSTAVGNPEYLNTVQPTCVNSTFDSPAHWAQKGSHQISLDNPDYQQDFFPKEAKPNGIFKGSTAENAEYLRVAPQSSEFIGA
T3 sequence (Q9Y463 whole entry): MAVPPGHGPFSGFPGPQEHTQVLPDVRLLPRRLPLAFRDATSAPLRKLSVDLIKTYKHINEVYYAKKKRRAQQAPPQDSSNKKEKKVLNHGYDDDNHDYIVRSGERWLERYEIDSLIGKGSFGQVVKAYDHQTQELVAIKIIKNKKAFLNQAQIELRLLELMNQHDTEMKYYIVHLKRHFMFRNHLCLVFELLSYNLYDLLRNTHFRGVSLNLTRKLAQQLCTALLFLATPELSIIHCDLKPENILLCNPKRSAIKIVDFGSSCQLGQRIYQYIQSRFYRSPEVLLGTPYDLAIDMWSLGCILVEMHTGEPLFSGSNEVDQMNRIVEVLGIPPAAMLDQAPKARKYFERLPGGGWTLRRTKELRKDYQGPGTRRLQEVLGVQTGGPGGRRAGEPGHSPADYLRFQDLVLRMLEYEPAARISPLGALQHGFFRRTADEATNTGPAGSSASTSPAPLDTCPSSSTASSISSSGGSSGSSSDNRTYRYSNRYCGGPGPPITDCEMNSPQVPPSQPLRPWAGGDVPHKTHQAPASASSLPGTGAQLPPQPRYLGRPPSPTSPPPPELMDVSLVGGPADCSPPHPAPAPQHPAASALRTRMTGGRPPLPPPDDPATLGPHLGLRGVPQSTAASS

CC(C)(C)CNCCn1c(Sc2cc3c(cc2I)OCO3)nc2c(N)ncnc21 [Compound 85]
SUV average, Brain ([1]; 0.5 h): 1.12 SUV | SUV average, Lung ([1]; 0.5 h): 0.59 SUV | SUV average, Muscle ([1]; 0.5 h): 0.87 SUV | SUV average, Brain ([1]; 3 h): 0.49 SUV | SUV average, Lung ([1]; 3 h): 0.34 SUV | SUV average, Muscle ([1]; 3 h): 0.37 SUV | SUV average, Brain ([1]; 24 h): 0.04 SUV | SUV average, Lung ([1]; 24 h): 0.1 SUV | SUV average, Muscle ([1]; 24 h): 0.1 SUV | % PU-HZ151 remaining (CYP2A6; 15 min): 57.2% | % PU-HZ151 remaining (CYP2A6; 30 min): 36.6% | % PU-HZ151 remaining (CYP2A6; 60 min): 18.4% | inhibition of PU-HZ151 metabolism (CYP2A6; tranylcypromine): essentially no effect | remaining binding at 10 µM (97 kinases [2]): 93% | remaining binding at 10 µM (97 kinases [3]): 36% | %Survival of cells at day 0 (ATP levels) (MDA-MB-468 cells): -90%
